Laboratory results taken from patent publication US20240158446A1, “CYCLIC COMPOUND HAVING SELECTIVE INHIBITORY ACTION ON KRAS OVER HRAS AND NRAS” (CHUGAI SEIYAKU KABUSHIKI KAISHA, priority 2021, published 2024).
Read-outs that look alike come from different tables or passages of the source. Where a SMILES comes first, the peptide text is derived from it. Bridges are numbered along the chain shown (N, C = ends). [ ]: non-standard residue; d: D form. The star is where a group is joined. hPhe(3-Cl-4-CF3) = N[C@@H](CCc1ccc(C(F)(F)F)c(Cl)c1)C(=O)O; NPrPhe(4-CF3) = CCCN[C@@H](Cc1ccc(C(F)(F)F)cc1)C(=O)O; NEtPhe(4-F) = CCN[C@@H](Cc1ccc(F)cc1)C(=O)O; NMeGly(cPent) = CN[C@H](C(=O)O)C1CCCC1; Pro(4,4-F2) = O=C(O)[C@@H]1CC(F)(F)CN1; Hyp = O=C(O)[C@@H]1C[C@@H](O)CN1; NMeD = CN[C@@H](CC(=O)O)C(=O)O; NMeL = CN[C@@H](CC(C)C)C(=O)O; Morpholide = C1CN(*)CCO1; NMeA = CN[C@@H](C)C(=O)O; Ac5c = NC1(C(=O)O)CCCC1; Aze = O=C(O)[C@@H]1CCN1; Sar = CNCC(=O)O

What was measured:
[1] = molecular target: GDP-bound NRAS wild-type protein (Homo sapiens, UniProt P01111); assay: Binding to NRAS by surface plasmon resonance (SPR), Single Cycle Kinetics; conditions: for NRAS/KRAS (ratio of KD value for NRAS to KD value for KRAS) / NRAS/KRAS (ratio of KD value with respect to NRAS to KD value with respect to KRAS): SPR, GDP-bound NRAS wild-type protein vs GDP-bound KRAS wild-type protein
Sequence of GDP-bound NRAS wild-type protein (P01111 whole entry): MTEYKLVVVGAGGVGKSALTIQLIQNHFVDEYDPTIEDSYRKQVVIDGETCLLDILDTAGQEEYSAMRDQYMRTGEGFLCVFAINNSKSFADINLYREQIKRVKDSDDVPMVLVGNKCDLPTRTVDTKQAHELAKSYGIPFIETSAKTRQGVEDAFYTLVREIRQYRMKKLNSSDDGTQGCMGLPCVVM

[2] = molecular target: GDP-bound KRAS wild-type protein (Homo sapiens, UniProt P01116); assay: Binding to KRAS by surface plasmon resonance (SPR), Single Cycle Kinetics; conditions: GDP-bound KRAS wild-type protein, read-out: KRAS KD
Sequence of GDP-bound KRAS wild-type protein (P01116 whole entry): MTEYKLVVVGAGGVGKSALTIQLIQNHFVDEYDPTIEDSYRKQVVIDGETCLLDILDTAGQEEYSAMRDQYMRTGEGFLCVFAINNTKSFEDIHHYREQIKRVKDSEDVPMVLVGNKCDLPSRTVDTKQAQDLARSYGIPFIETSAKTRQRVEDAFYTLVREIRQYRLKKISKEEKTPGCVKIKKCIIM

[3] = molecular target: GDP-bound HRAS wild-type protein (Homo sapiens, UniProt P01112); assay: Binding to HRAS by surface plasmon resonance (SPR), Single Cycle Kinetics; conditions: for HRAS/KRAS (ratio of KD value for HRAS to KD value for KRAS) / HRAS/KRAS (ratio of KD value with respect to HRAS to KD value with respect to KRAS): SPR, GDP-bound HRAS wild-type protein vs GDP-bound KRAS wild-type protein
Sequence of GDP-bound HRAS wild-type protein (P01112 whole entry): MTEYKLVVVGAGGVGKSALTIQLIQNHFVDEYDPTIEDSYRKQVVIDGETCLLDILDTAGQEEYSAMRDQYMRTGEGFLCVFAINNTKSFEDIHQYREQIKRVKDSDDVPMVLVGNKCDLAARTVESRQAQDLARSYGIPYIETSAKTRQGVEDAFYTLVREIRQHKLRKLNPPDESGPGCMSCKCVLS

[4] = SPR Single Cycle Kinetics, 1:1 binding model
[5] = SPR, Single Cycle Kinetics, 1:1 binding model

Row | SMILES | NRAS/KRAS (ratio of KD value for NRAS to KD value for KRAS) [1] | Kd ([2]; SPR, Single Cycle Kinetics) | HRAS/KRAS (ratio of KD value for HRAS to KD value for KRAS) [3] | Kd [2, 4] | further results
1 | CCC[C@H]1C(=O)N[C@@H]([C@@H](C)CC)C(=O)N(C2CC2)CC(=O)N(C)[C@H]2C/C=C\CCN(C2=O)[C@@H](Cc2ccc(C)cc2)C(=O)N(C)CC(=O)N[C@@H](CCc2ccc(C(F)(F)F)c(OC)c2)C(=O)N2C[C@H](OCC)C[C@H]2C(=O)N(C)C2(CCC2)C(=O)N(C)[C@@H](C2CCCC2)C(=O)N(C)[C@H](C(=O)N(C)C)CC(=O)N1C [PP2328, (2S,8S,12R,14S,20S,23S,27S,30S,36S,38Z)-20-cyclopentyl-32-cyclopropyl-12-ethoxy-8-[2-[3-methoxy-4-(trifluoromethyl)phenyl]ethyl]-N,N,4,16,19,22,26,35-octamethyl-30-[(1S)-1-methylpropyl]-3,6,9,15,18,21,25,28,31,34,42-undecaoxo-27-propyl-2-(p-tolylmethyl)spiro[1,4,7,10,16,19,22,26,29,32,35-undecazatricyclo[34.5.1.0^10,14]dotetracont-38-ene-17,1′-cyclobutane]-23-carboxamide] | A (a compound having 10 or more and less than 20 is denoted as A) | 79 pM | A (a compound having 10 or more and less than 20 is denoted as A) |  | 
2 | CCCC[C@H]1C(=O)N[C@@H]([C@@H](C)CC)C(=O)N(C)CC(=O)N(C)[C@H]2C/C=C\CCN(C2=O)[C@@H](Cc2ccc(C(F)(F)F)cc2)C(=O)N(C)CC(=O)N[C@@H](CCc2cc(F)c(C(F)(F)F)c(F)c2)C(=O)N2C[C@H](OCC)C[C@H]2C(=O)NC2(CC(C)(C)C2)C(=O)N(C)[C@@H](C2CCCC2)C(=O)N(C)[C@H](C(=O)N(C)CC)CC(=O)N1C [PP2806] |  |  |  | 120 pM | NRAS/KRAS (ratio of KD value with respect to GDP-bound NRAS wild-type protein to KD value with respect to KRAS) ([1]; SPR KD ratio NRAS/KRAS, class symbols): A (a compound having 10 or more and less than 20 is denoted as A); HRAS/KRAS (ratio of KD value with respect to GDP-bound HRAS wild-type protein to KD value with respect to KRAS) ([3]; SPR KD ratio HRAS/KRAS, class symbols): A (a compound having 10 or more and less than 20 is denoted as A)
3 | CCCN1C(=O)CN(C)C(=O)[C@@H]2CCN2C(=O)[C@H]([C@@H](C)CC)NC(=O)[C@H](CC(C)C)N(C)C(=O)C[C@@H](C(=O)N(C)C)NC(=O)[C@H](C2CCCC2)N(C)C(=O)C2(CCCC2)NC(=O)[C@@H]2C[C@@H](OCC)CN2C(=O)[C@H](CCc2ccc(C(F)(F)F)c(Cl)c2)NC(=O)CN(C)C(=O)[C@@H]1Cc1ccc(C(F)(F)F)cc1 [PP0377] ([NMeL]I[Aze][Sar][NPrPhe(4-CF3)][Sar][hPhe(3-Cl-4-CF3)][Hyp](Et)[Ac5c][NMeGly(cPent)]D-NMe2; lactam N-11) | B (a compound having 3 or more and less than 10 is denoted as B) |  | C (A compound having a KD ratio of 0.1 or more and less than 3 is denoted as C) | 700 pM | 
4 | C=CC[C@H]1C(=O)N[C@@H]([C@@H](C)CC)C(=O)N(C)CC(=O)N(C)[C@H]2CCCCCN(C2=O)[C@@H](Cc2ccc(C(F)(F)F)cc2)C(=O)N(C)CC(=O)N[C@@H](CCc2cc(F)c(C(F)(F)F)c(F)c2)C(=O)N2C[C@H](OCC)C[C@H]2C(=O)NC2(CCC2)C(=O)N(C)[C@@H](C2CCCC2)C(=O)N(C)[C@H](C(=O)N(C)C)CC(=O)N1C [PP0665] |  |  |  | 240 pM | NRAS/KRAS (ratio of KD value with respect to NRAS to KD value with respect to KRAS) [1]: B (a compound having 3 or more and less than 10 is denoted as B); HRAS/KRAS (ratio of KD value with respect to HRAS to KD value with respect to KRAS) [3]: B (a compound having 3 or more and less than 10 is denoted as B)
5 | CCO[C@@H]1C[C@H]2C(=O)NC3(CC(C)(C)C3)C(=O)N(C)[C@@H](C(CC)CC)C(=O)N(C)[C@H](C(=O)N(C)C)CC(=O)N(C)[C@@H](CC)C(=O)N[C@@H]([C@@H](C)CC)C(=O)N(C)CC(=O)N(C)[C@H]3C/C=C\CCN(C3=O)[C@@H](Cc3ccc(C)cc3)C(=O)N(C)CC(=O)N[C@@H](CCc3cc(F)c(C(F)(F)F)c(F)c3)C(=O)N2C1 [PP2147] | A (a compound having 10 or more and less than 20 is denoted as A) | 330 pM | B (a compound having 3 or more and less than 10 is denoted as B) |  | 
6 | CC[C@H](C)[C@@H]1NC(=O)[C@H](CC(C)C)N(C)C(=O)C[C@@H](C(=O)N2CCOCC2)N(C)C(=O)[C@H](C2CCCC2)N(C)C(=O)C2(CCC2)NC(=O)[C@@H]2[C@H](OC)CCN2C(=O)[C@H](CCc2cc(F)c(C(F)(F)F)c(F)c2)NC(=O)CN(C)C(=O)[C@H](Cc2ccc(C(F)(F)F)cc2)N2CCCCC[C@@H](C2=O)N(C)C(=O)CN(C)C1=O [PP1085] | A (a compound having 10 or more and less than 20 is denoted as A) | 950 pM | A (a compound having 10 or more and less than 20 is denoted as A) |  | 
7 | CCO[C@@H]1C[C@H]2C(=O)NC3(CC(F)(F)C3)C(=O)N(C)[C@@H](C(CC)CC)C(=O)N(C)C(C(C)C)CC(=O)N(C)[C@@H](CC)C(=O)N[C@@H]([C@@H](C)CC)C(=O)N(C)CC(=O)N(C)[C@H]3C/C=C\CCN(C3=O)[C@@H](Cc3ccc(C(F)(F)F)cc3)C(=O)N(C)CC(=O)N[C@@H](CCc3cc(F)c(C(F)(F)F)c(F)c3)C(=O)N2C1 (stereo partly drawn) [PP1591] |  |  |  |  | NRAS/KRAS (ratio of KD value for NRAS to KD value for KRAS) ([1]; KD ratio class): A (a compound having 10 or more and less than 20 is denoted as A); Kd [2, 5]: 4600 pM; HRAS/KRAS (ratio of KD value for HRAS to KD value for KRAS) ([3]; KD ratio class): A (a compound having 10 or more and less than 20 is denoted as A)
8 | CCO[C@@H]1C[C@H]2C(=O)NC3(CC(C)(C)C3)C(=O)N(C)[C@@H](C(CC)CC)C(=O)N(C)[C@H](C(=O)N3CCCC3)CC(=O)N(C)[C@@H](COC)C(=O)N[C@@H]([C@@H](C)CC)C(=O)N(C)CC(=O)N(C)[C@H]3C/C=C\CCN(C3=O)[C@@H](Cc3ccc(C)cc3)C(=O)N(C)CC(=O)N[C@@H](CCc3ccc(C(F)(F)F)c(OC)c3)C(=O)N2C1 [PP2167] | AA (a compound having 20 or more is denoted as AA) | 710 pM | A (a compound having 10 or more and less than 20 is denoted as A) |  | 
9 | CCCOC[C@H]1C(=O)N[C@@H]([C@@H](C)CC)C(=O)N(C)CC(=O)N(C)[C@H]2C/C=C\CCN(C2=O)[C@@H](Cc2ccc(C(F)(F)F)cc2)C(=O)N(C)CC(=O)N[C@@H](CCc2cc(F)c(C(F)(F)F)c(F)c2)C(=O)N2C[C@H](OCC)C[C@H]2C(=O)NC2(CC(C)(C)C2)C(=O)N(C)[C@@H](C2CCCC2)C(=O)N(C)[C@H](C(=O)N(CC)CC)CC(=O)N1C [PP1575] |  |  |  |  | NRAS/KRAS (ratio of KD value for NRAS to KD value for KRAS) ([1]; KD ratio class): B (a compound having 3 or more and less than 10 is denoted as B); Kd [2, 5]: 550 pM; HRAS/KRAS (ratio of KD value for HRAS to KD value for KRAS) ([3]; KD ratio class): B (a compound having 3 or more and less than 10 is denoted as B)
10 | CCCN1C(=O)[C@@H]2CCN2C(=O)CN(C)C(=O)[C@H]([C@@H](C)CC)NC(=O)[C@H](CC(C)C)N(C)C(=O)C[C@@H](C(=O)N(C)C)N(C)C(=O)[C@H](C2CCCC2)N(C)C(=O)C2(CCCC2)NC(=O)[C@@H]2CC(F)(F)CN2C(=O)[C@H](CCc2ccc(C(F)(F)F)c(Cl)c2)NC(=O)CN(C)C(=O)[C@@H]1Cc1ccc(C(F)(F)F)cc1 [PP0442] ([NMeL]I[Sar][Aze][NPrPhe(4-CF3)][Sar][hPhe(3-Cl-4-CF3)][Pro(4,4-F2)][Ac5c][NMeGly(cPent)][NMeD]-NMe2; lactam N-11) |  |  |  | 37 pM | NRAS/KRAS (ratio of KD value with respect to NRAS to KD value with respect to KRAS) [1]: C (A compound having a KD ratio of 0.1 or more and less than 3 is denoted as C); HRAS/KRAS (ratio of KD value with respect to HRAS to KD value with respect to KRAS) [3]: C (A compound having a KD ratio of 0.1 or more and less than 3 is denoted as C)
11 | CC[C@H](C)[C@@H]1NC(=O)[C@H](CC(C)C)N(C)C(=O)C[C@@H](C(=O)N2CCOCC2)N(C)C(=O)[C@H](C2CCCC2)N(C)C(=O)C2(CCCC2)NC(=O)[C@@H]2CCCN2C(=O)[C@H](CCc2ccc(C(F)(F)F)c(Cl)c2)NC(=O)CN(C)C(=O)[C@H](Cc2ccc(F)cc2)N(CC)C(=O)[C@@H]2CCN2C(=O)[C@H](C)N(C)C1=O [PP0218] ([NMeL]I[NMeA][Aze][NEtPhe(4-F)][Sar][hPhe(3-Cl-4-CF3)]P[Ac5c][NMeGly(cPent)][NMeD]-Morpholide; lactam N-11) | C (A compound having a KD ratio of 0.1 or more and less than 3 is denoted as C) |  | C (A compound having a KD ratio of 0.1 or more and less than 3 is denoted as C) | 200 pM | 
12 | CCO[C@@H]1C[C@H]2C(=O)NC3(CC(C)(C)C3)C(=O)N(C)[C@@H](C(CC)CC)C(=O)N(C)[C@H](C(=O)N(C)C)CC(=O)N(C)[C@@H](C(C)C)C(=O)N[C@@H]([C@@H](C)CC)C(=O)N(C)CC(=O)N(C)[C@H]3C/C=C\CCN(C3=O)[C@@H](Cc3ccc(C)cc3)C(=O)N(C)CC(=O)N[C@@H](CCc3ccc(Cl)c(Cl)c3)C(=O)N2C1 [PP2122] | AA (a compound having 20 or more is denoted as AA) | 1400 pM | A (a compound having 10 or more and less than 20 is denoted as A) |  | 
13 | CC[C@H](C)[C@@H]1NC(=O)[C@H](CC2CCCC2)N(C)C(=O)C[C@@H](C(=O)N(C)C)N(C)C(=O)[C@H](C2CCCC2)N(C)C(=O)C2(CCC2)NC(=O)[C@@H]2C[C@@H](C(F)(F)F)CN2C(=O)[C@H](CCc2cc(F)c(C(F)(F)F)c(F)c2)NC(=O)CN(C)C(=O)[C@H](Cc2ccc(C(F)(F)F)cc2)N2CC/C=C\C[C@@H](C2=O)N(C)C(=O)CN(C)C1=O [PP1505] |  |  |  |  | NRAS/KRAS (ratio of KD value for NRAS to KD value for KRAS) ([1]; KD ratio class): A (a compound having 10 or more and less than 20 is denoted as A); Kd [2, 5]: 92 pM; HRAS/KRAS (ratio of KD value for HRAS to KD value for KRAS) ([3]; KD ratio class): A (a compound having 10 or more and less than 20 is denoted as A)
